Source: patent publication US11566002B2, “Substituted tetrahydrocyclopenta[C]pyrroles, substituted dihydropyrrolizines, analogues thereof, and methods using same” (priority 2018, dated 2023)

test system: HBV rcDNA; test: HepDE19 assay with bDNA quantitation of HBV rcDNA; type: cell-based, hepatitis B virus; conditions: HepDE19 cells, Tet-free medium, 7 day-incubation, rcDNA measured by Quantigene 2.0 bDNA assay, top concentration 25 μM; read-out: DE-19 bDNA EC50
Method: HepDE19 Assay with bDNA Quantitation of HBV rcDNA:
HepDE19 cell culture system is a HepG2 (human hepatocarcinoma) derived cell line that supports HBV DNA replication and cccDNA formation in a tetracycline (Tet)-regulated manner and produces HBV rcDNA and a detectable reporter molecule dependent on the production and maintenance of cccDNA (Guo, et al., 2007, J. Virol. 81:12472-12484).
HepDE19 (50,000 cells/well) were plated in 96-well collagen-coated tissue-culture treated microtiter plates in DMEM/F12 medium supplemented with 10% fetal bovine serum, 1% penicillin-streptomycin and 1 μg/mL tetracycline and incubated in a humidified incubator at 37° C. and 5% CO2 overnight. Next day, the cells were switched to fresh medium without tetracycline and incubated for 4 hours at 37° C. and 5% CO2. The cells were treated with fresh Tet-free medium with compounds at concentrations starting at 25 μM and a serial, ½ log, 8-point, titration series in duplicate. The final DMSO concentration in the assay was 0.5%. The plates were incubated for 7 days in a humidified incubator at 37° C. and 5% CO2. Following a 7 day-incubation, the level of rcDNA present in the inhibitor-treated wells was measured using a Quantigene 2.0 bDNA assay kit (Affymetrix, Santa Clara, Calif.) with HBV specific custom probe set and manufacturers instructions. Concurrently, the effect of compounds on cell viability was assessed using replicate plates, plated at a density of 5,000 cells/well and incubated for 4 days, to determine the ATP content as a measure of cell viability using the cell-titer glo reagent (CTG; Promega Corporation, Madison, Wis.) as per manufacturer's instructions. The plates were read using a Victor luminescence plate reader (PerkinElmer Model 1420 Multilabel counter) and the relative luminescence units (RLU) data generated from each well was calculated as % inhibition of the untreated control wells and analyzed using XL-Fit module in Microsoft Excel to determine EC50 and EC90 (bDNA) and CC50 (CTG) values using a 4-parameter curve fitting algorithm.
Representative compounds of the invention were tested for their abilities to inhibit formation of relaxed circular DNA (rcDNA) in a HepDE19 assay, as described elsewhere herein.

Going from `Cn1c(Cl)c2c(c1C(=O)Nc1ccc(F)c(Cl)c1)CCCC2NC(=O)OCc1cn[nH]n1` (single isomer, unassigned) [Compound 136, (2H-1,2,3-Triazol-4-yl)methyl (3-chloro-1-((3-chloro-4-fluorophenyl)carbamoyl)-2-methyl-4,5,6,7-tetrahydro-2H-isoindol-4-yl)carbamate] to `Cn1c(Cl)c2c(c1C(=O)Nc1ccc(F)c(Cl)c1)CCCC2NC(=O)OCc1nc[nH]n1` (single isomer, unassigned) [Compound 135, (1H-1,2,4-Triazol-3-yl)methyl (3-chloro-1-((3-chloro-4-fluorophenyl)carbamoyl)-2-methyl-4,5,6,7-tetrahydro-2H-isoindol-4-yl)carbamate], the EC50 falls from 1.2 µM to 0.18 µM (6.7-fold).

Compared with `C#CCOC(=O)NC1CCc2c1cn(C)c2C(=O)Nc1ccc(F)c(Cl)c1` (single isomer, unassigned) [Compound 102, Prop-2-yn-1-yl (1-((3-chloro-4-fluorophenyl)carbamoyl)-2-methyl-2,4,5,6-tetrahydrocyclopenta[c]pyrrol-4-yl)carbamate], `Cn1cc2c(c1C(=O)Nc1ccc(F)c(Cl)c1)CCC2NC(=O)OCCC#N` (single isomer, unassigned) [Compound 50, 2-Cyanoethyl (1-((3-chloro-4-fluorophenyl)carbamoyl)-2-methyl-2,4,5,6-tetrahydrocyclopenta[c]pyrrol-4-yl)carbamate] is 150-fold higher in EC50: 0.02 µM for the first, 3 µM for the second. The first is the more potent here.

Going from `Cc1n[nH]nc1COC(=O)NC1CCc2c1cn(C)c2C(=O)Nc1ccc(F)c(Cl)c1` (single isomer, unassigned) [Compound 138, (5-Methyl-2H-1,2,3-triazol-4-yl)methyl (1-((3-chloro-4-fluorophenyl)carbamoyl)-2-methyl-2,4,5,6-tetrahydrocyclopenta[c]pyrrol-4-yl)carbamate] to `Cn1cc2c(c1C(=O)Nc1ccc(F)c(Cl)c1)CCC2NC(=O)OCc1c[nH]nn1` (single isomer, unassigned) [Compound 59, (1H-1,2,3-Triazol-4-yl)methyl (1-((3-chloro-4-fluorophenyl)carbamoyl)-2-methyl-2,4,5,6-tetrahydrocyclopenta[c]pyrrol-4-yl)carbamate], the EC50 rises from 0.86 µM to 4.2 µM (4.9-fold).

First: Cn1ncc(COC(=O)NC2CCc3c2cn(C)c3C(=O)Nc2ccc(F)c(Cl)c2)n1 (single isomer, unassigned) [Compound 129, (2-Methyl-2H-1,2,3-triazol-4-yl)methyl (1-((3-chloro-4-fluorophenyl)carbamoyl)-2-methyl-2,4,5,6-tetrahydrocyclopenta[c]pyrrol-4-yl)carbamate]
Second: Cn1cc2c(c1C(=O)Nc1ccc(F)c(Cl)c1)CCC2NC(=O)OCC1(C(N)=O)CC(F)(F)C1 (single isomer, unassigned) [Compound 56, (1-Carbamoyl-3,3-difluorocyclobutyl)methyl (1-((3-chloro-4-fluorophenyl)carbamoyl)-2-methyl-2,4,5,6-tetrahydrocyclopenta[c]pyrrol-4-yl)carbamate]
The EC50 of the first is 15-fold lower: 0.04 µM for the first, 0.6 µM for the second. The first is the more potent here.

Compared with `Cc1c2c(c(C(=O)Nc3ccc(F)c(Cl)c3)n1C)CCCC2NC(=O)OCc1ncn(C)n1` (single isomer, unassigned) [Compound 93, (1-Methyl-1H-1,2,4-triazol-3-yl)methyl (1-((3-chloro-4-fluorophenyl)carbamoyl)-2,3-dimethyl-4,5,6,7-tetrahydro-2H-isoindol-4-yl)carbamate], `Cn1cnc(COC(=O)NC2CCc3c2c(C2CCC2)n(C)c3C(=O)Nc2ccc(F)c(Cl)c2)n1` (single isomer, unassigned) [Compound 97, (1-Methyl-1H-1,2,4-triazol-3-yl)methyl (1-((3-chloro-4-fluorophenyl)carbamoyl)-3-cyclobutyl-2-methyl-2,4,5,6-tetrahydrocyclopenta[c]pyrrol-4-yl)carbamate] is higher in EC50: 0.95 µM for the first, ≥ 25 µM for the second.

With `CCn1cc2c(c1C(=O)Nc1ccc(F)c(Cl)c1)CCC2NS(=O)(=O)C1CC1` (single isomer, unassigned) [Compound 16, N-(3-Chloro-4-fluorophenyl)-4-(cyclopropanesulfonamido)-2-ethyl-2,4,5,6-tetrahydrocyclopenta[c]pyrrole-1-carboxamide] the EC50 was 0.13 µM.
With `CCn1cc2c(c1C(=O)Nc1ccc(F)c(Cl)c1)CCC2NS(=O)(=O)C1CC1` (single isomer, unassigned) [Compound 15, N-(3-Chloro-4-fluorophenyl)-4-(cyclopropanesulfonamido)-2-ethyl-2,4,5,6-tetrahydrocyclopenta[c]pyrrole-1-carboxamide] the EC50 was ≥ 25 µM.

same assay, conditions: Hepatitis B virus, HepDE19, 168 h, HepDE19 cells, Tet-free medium, 7 day-incubation, rcDNA measured by Quantigene 2.0 bDNA assay, top concentration 25 μM; read-out: DE-19 bDNA EC50

`Cn1cc2c(c1C(=O)Nc1ccc(F)c(Cl)c1)CCC2=O` [Compound 44, N-(3-chloro-4-fluorophenyl)-2-methyl-4-oxo-2,4,5,6-tetrahydrocyclopenta[c]pyrrole-1-carboxamide] and `CNC(=O)NC1CCc2c1c[nH]c2C(=O)Nc1ccc(F)c(Cl)c1` (racemic) [Compound 8, N-(3-chloro-4-fluorophenyl)-4-(3-methylureido)-2,4,5,6-tetrahydrocyclopenta[c]pyrrole-1-carboxamide] are within 1.5-fold of each other in EC50: 19 µM for the first, 18 µM for the second.

Going from `Cc1c2c(c(C(=O)Nc3ccc(F)c(Cl)c3)n1C)CCCC2NC(=O)OCc1ncn(C)n1` (single isomer, unassigned) [Compound 92, (1-Methyl-1H-1,2,4-triazol-3-yl)methyl (1-((3-chloro-4-fluorophenyl)carbamoyl)-2,3-dimethyl-4,5,6,7-tetrahydro-2H-isoindol-4-yl)carbamate] to `Cn1cnc(COC(=O)NC2CCc3c2cn(C)c3C(=O)Nc2cccc(F)c2)n1` (single isomer, unassigned) [Compound 66, (1-methyl-1H-1,2,4-triazol-3-yl)methyl (1-((3-fluorophenyl)carbamoyl)-2-methyl-2,4,5,6-tetrahydrocyclopenta[c]pyrrol-4-yl)carbamate], the EC50 rises from 0.53 µM to 0.9 µM (1.7-fold).

same assay, conditions: Hepatitis B virus, HepDE19, 168 h, read-out: DE-19 bDNA EC50 (μM), HepDE19 cells, Tet-free medium, 7 day-incubation, rcDNA measured by Quantigene 2.0 bDNA assay, top concentration 25 μM

For `COC(=O)NC1CCCc2c1cn(C)c2C(=O)Nc1ccc(F)c(Cl)c1` (single isomer, unassigned) [Compound 74, Methyl (1-((3-chloro-4-fluorophenyl)carbamoyl)-2-methyl-4,5,6,7-tetrahydro-2H-isoindol-4-yl)carbamate], the EC50 was 0.61 µM.

same assay, conditions: read-out: DE-19 bDNA EC50; HepDE19 cells, Tet-free medium, 7 day-incubation, rcDNA measured by Quantigene 2.0 bDNA assay, top concentration 25 μM

First: Cn1cnc(COC(=O)NC2CCc3c2c(-c2ccccc2)n(C)c3C(=O)Nc2ccc(F)c(Cl)c2)n1 (single isomer, unassigned) [Compound 109, (1-Methyl-1H-1,2,4-triazol-3-yl)methyl (1-((3-chloro-4-fluorophenyl)carbamoyl)-2-methyl-3-phenyl-2,4,5,6-tetrahydrocyclopenta[c]pyrrol-4-yl)carbamate]
Second: Cn1ccc(COC(=O)NC2CCc3c2cn(C)c3C(=O)Nc2ccc(F)c(Cl)c2)n1 (single isomer, unassigned) [Compound 22, (1-Methyl-1H-pyrazol-3-yl)methyl(1-((3-chloro-4-fluorophenyl)carbamoyl)-2-methyl-2,4,5,6-tetrahydrocyclopenta[c]pyrrol-4-yl)carbamate]
The EC50 of the first is 31-fold higher: 24 µM for the first, 0.78 µM for the second.

Work on `Cn1ccc(COC(=O)NC2CCCc3c2cn(C)c3C(=O)Nc2ccc(F)c(Cl)c2)n1` (single isomer, unassigned) [Compound 77, (1-Methyl-1H-pyrazol-3-yl)methyl(1-((3-chloro-4-fluorophenyl)carbamoyl)-2-methyl-4,5,6,7-tetrahydro-2H-isoindol-4-yl)carbamate] yielded an EC50 of 0.07 µM.
